Activity calls are given as the source filed them. The rule behind the calls is not given here.
Biological target: Influenza A virus M2 proton channel (A/TW/4845/1999 H1N1)
Assay: M2 proton channel binding, NMR based, influenza A virus H1N1 strain (AID 1549)
Details: NMR binding screen, M2 protein

Compound	Kd
CC1=C(C(N)=O)C(c2ccco2)C(C(N)=O)=C(C)N1	> 4 mM (inactive)
COc1ccc(S(=O)(=O)N2CCOCC2)cc1C(C)C	> 4 mM (inactive)
O=C(O)c1ccnn1-c1ccccc1	> 4 mM (inactive)
Cn1c(=O)c2[nH]cnc2n(C)c1=O	> 4 mM (inactive)
COc1cccc(-c2cc(=O)c3cc(OC)ccc3o2)c1	> 4 mM (inactive)
O=C(O)c1ccc(-n2ccnc2)cc1	> 4 mM (inactive)
CC(=O)N1CCN(S(=O)(=O)c2ccccc2)CC1	> 4 mM (inactive)
Cc1nc(CC(=O)O)c(-c2ccccc2)s1	> 4 mM (inactive)
CCOC(=O)CSc1nnc(C)c(=O)[nH]1	> 4 mM (inactive)
O=C1NC(=O)/C(=C/c2ccc(O)cc2)N1	> 4 mM (inactive)
COc1ccccc1NC(=O)c1ccc(Br)o1	> 4 mM (inactive)
CSc1nc(-c2ccco2)nn1S(C)(=O)=O	> 4 mM (inactive)
Cn1ccnc1SCc1cc(=O)[nH]c2ccccc12	> 4 mM (inactive)
Cc1cc2cc3c(C)cc(=O)oc3c(C)c2o1	> 4 mM (inactive)
COc1ccc2c(c1)O[C@@H]1COc3cc(OC)c(OC)cc3[C@@H]1C2=O	> 4 mM (inactive)
O=c1cccc2n1CC1CC2CN2CCCC[C@@H]12 (stereo partly specified)	> 4 mM (inactive)
O=c1/c(=C\c2cccnc2)sc2nc3ccccc3n12	> 4 mM (inactive)
CC(=O)Nc1ccc(C(=O)NC2CCSC2=O)cc1 (stereo unspecified)	> 4 mM (inactive)
CC(=O)N1CN(C(C)=O)CN(C(C)=O)C1	> 4 mM (inactive)
COc1c2ccccc2nc2occc12	> 4 mM (inactive)
CC(=O)NC(O)C(=O)c1cccs1 (stereo unspecified)	> 4 mM (inactive)

Compound	Kd
CC(=O)Nc1ccc(C(=O)NC2=NCCS2)cc1	> 4 mM (inactive)
CC(=O)c1ccc(-n2ccnc2)cc1	> 4 mM (inactive)
CNC(=O)C(=O)NCc1ccc(C)cc1	> 4 mM (inactive)
COc1ccc(-c2oc3c(CC=C(C)C)c(O[C@@H]4O[C@H](CO)[C@@H](O)[C@H](O)[C@H]4O)cc(O)c3c(=O)c2O[C@@H]2O[C@@H](C)[C@H](O)[C@@H](O)[C@H]2O)cc1	> 4 mM (inactive)
CSc1nc(NC(C)(C)C)nc(N2CCOCC2)n1	> 4 mM (inactive)
Cn1ncc(C(=O)NC2CCCCC2)c1Cl	> 4 mM (inactive)
O=C1CSC(=Nc2cc(Cl)ccc2Cl)N1	> 4 mM (inactive)
O=C(O)CC(O)c1nc2ccccc2[nH]1 (stereo unspecified)	> 4 mM (inactive)
Cc1ccc(CN2CCNC(=O)C2CC(=O)O)o1 (stereo unspecified)	> 4 mM (inactive)
O=C(Nc1nnc(C(F)(F)F)s1)c1cccnc1	> 4 mM (inactive)
COc1cccc(-c2nn(-c3ccccc3)cc2CO)c1	> 4 mM (inactive)
Cc1noc(C)c1C(=O)Nc1ccccc1-c1ccccc1	> 4 mM (inactive)
Cc1ccc(-n2cnnn2)c2cccnc12	> 4 mM (inactive)
O=C1NC(=S)N/C1=C\c1cccnc1	> 4 mM (inactive)
OC1(c2ccc(Cl)cc2)CCNCC1	> 4 mM (inactive)
O=c1ccc2c([nH]1)CCCC2	> 4 mM (inactive)
CC(C)c1ccc2c(c1)CCC1[C@](C)(CN)CCC[C@]21C (stereo partly specified)	> 4 mM (inactive)
COCc1nn2c(N)c(C#N)cnc2c1-c1ccccc1	> 4 mM (inactive)
S=C(NCC1CCCO1)NC1CC1 (stereo unspecified)	> 4 mM (inactive)
Cc1ccc(N2C(=O)CC(=O)NC2=O)cc1	> 4 mM (inactive)
CN(C)C(=S)Nc1nc2ccccc2s1	> 4 mM (inactive)

Compound	Kd
O=C(Nc1ccon1)c1ccccc1Cl	> 4 mM (inactive)
CN(C)C(=O)Oc1cccc(-c2nnco2)c1	> 4 mM (inactive)
O=C(NCC1CCNCC1)c1ccncc1	> 4 mM (inactive)
O=c1cc(-c2ccccc2)oc2cc(O)cc(O)c12	> 4 mM (inactive)
C=C1C(=O)O[C@@H]2C[C@@]3(C)CCC[C@H](C)C3=C[C@H]12	> 4 mM (inactive)
COc1cccc2c(=O)n(CC(N)=O)ccc12	> 4 mM (inactive)
O=C(Nc1cccc2cccnc12)c1cccnc1	> 4 mM (inactive)
Cc1cn(C(=O)CN2C(=O)c3ccccc3C2=O)c(C)n1	> 4 mM (inactive)
CCC(C)OC1CCS(=O)(=O)C1 (stereo unspecified)	> 4 mM (inactive)
OCc1snnc1-c1ccccc1	> 4 mM (inactive)
CC(=O)/C=C\[C@@H]1[C@@]2(C)CCCC(C)(C)C2CC[C@@]1(C)O (stereo partly specified)	> 4 mM (inactive)
COc1ccc(N2CC(=O)NC2=O)cc1	> 4 mM (inactive)
O=C1Cc2ccccc2N1c1ccccc1	> 4 mM (inactive)
CN(Cc1nc2ccccc2n1C)S(C)(=O)=O	> 4 mM (inactive)
NS(=O)(=O)c1ccc2c3c(cccc13)C(=O)N2	> 4 mM (inactive)
Cc1ccc(-c2cc(C(=O)N3CCCC3)no2)cc1	> 4 mM (inactive)
CSc1ccccc1C(=O)N1CCOCC1	> 4 mM (inactive)
COC(=O)CCSCC(=O)Nc1nnc(C)s1	> 4 mM (inactive)
CC1=C(C(=O)Nc2ccccc2)SCCO1	> 4 mM (inactive)

Source: PubChem BioAssay AID1549 (Sanford-Burnham Center for Chemical Genomics, 2009)
